Experimental data from patent publication US20110059916A1, “Methods and Compositions for Inducing Torpor in a Subject” (priority 2006, published 2011).

Key:
[1] = tested on: AMPK; conditions: rat muscle, via AMPK; cited from earlier work
[2] = tested on: mClps; assay: mClps (procolipase) expression after injection into light-dark mice, Northern blot / RT-PCR; assay type: in vivo, mouse; conditions: for mClps expression in the liver: injected into light-dark mice, Northern blot
Source text: Northern blot and RT-PCR analysis: Tissues were collected and frozen in liquid nitrogen and stored at about -80 C. The total RNA was isolated from mouse livers following standard procedures.^31 Twenty micrograms of total RNA was separated by electrophoresis and transferred onto a nylon membrane. The blots were hybridized with ^32P-labeled cDNA probes, washed and exposed to X-ray film as previously described.^30 Colipase probe was the complete cDNA (e.g., Genbank No: BC042935); the Gapdh probe was the Pst I fragment of rat Gapdh cDNA.^32 The primer pair used to measure colipase expression was SEQ ID NO:1 [NT] and SEQ ID NO:2 [NT], The primer pair used to measure Gapdh expression as an internal control was SEQ ID NO:3 [NT] and SEQ ID NO:4 [NT] 720 by probe for mouse pancreatic lipase related protein 2 (mPlrp2) was generated by RT-PCR using oligos LipaseF SEQ ID NO:5 [NT] and […] NO:6 [NT] from liver mRNA.

[3] = HPLC analysis of adenylates in blood, liver and muscle during SA; conditions: mice in SA given a second injection, red blood cells, 2 hours later
Method: HPLC analysis for adenine nucleotides: Blood was rapidly removed from mice and frozen in liquid Nitrogen. Nucleotides were extracted from frozen samples using about 0.4 N perchloric acid as previously described.^35 Briefly, about 425 μl of ice-cold about 0.4 N perchloric acid was added to frozen blood samples and mixed. After about 10 μl was removed for protein determination, the remainder was centrifuged at about 14,000×g for about 10 minutes at about 4° C. The supernatant (e.g., 305 μl) was transferred to a clean tube, neutralized with about 178 μl of about 0.6 M KHCO3/about 0.72 M KOH and acidified with about 55 μl of about 0.18 M ammonium phosphate solution (pH 5.1) and one drop of dilute phosphoric acid. The samples were centrifuged and the supernatants were stored at about −80° C. for analysis. Blood extracts and adenine nucleotides ATP, ADP, AMP, c-AMP and adenosine (e.g., from Sigma, MO, USA) were separated and quantified using reversed-phase HPLC (e.g., Waters, Millipore Corp., Bedford, Mass.) analysis on a Partisphere bonded phase reverse phase C18 cartridge column at a flow rate of 1.5 ml/minutes.^36 The mobile phase was 0.02 M NH4H2PO4, pH 5.1, with a superimposed methanol gradient: about 0% for about 0-4 minutes, about 0-8% for about 4-6 minutes, about 8-20% for about 6-8 minutes, and about 20% for about 8-18 minutes.

[4] = Serum glucose and liver procolipase expression during SA and arousal; assay type: in vivo, mouse
Method: Experimental Procedures. Each mouse was injected intraperitoneally (IP) with the appropriate dosages of 5'-AMP (Sigma catalog# […]) dissolved in phosphate buffered saline. They were immediately put into individual 500 ml pre-cooled beakers placed in a chamber at 4° C. […] CBT of the mice was monitored by a digital thermometer (Fisher Scientific, USA, catalog 15-077-8) via a micro stainless steel probe (1 mm) placed 1 cm into the rectal opening of the mouse. Temperature readings were taken at 15-20 sec after insertion of the probe. Once the CBT dropped to 15±1.0° C., mice were then transferred to a regular mouse cage with bedding and kept in an environment chamber at a temperature set at 14±0.5° C. or 15±0.5° C. […] CBT. Mice in SA were visually monitored for arousal. Once arousal was apparent, the animals were returned to standard housing. After 12 h of SA, mice were returned to 20-22° C. AET housing with food and water given ad labitum. For 4 consecutive days after SA, food intakes were determined by weight differential of fresh chow every 24 h at ZT2. Body weight was measured at every ZT2. Respiration rate was determined by placing a mouse inside an open-end 50 ml tube and the number of breaths were determined by counting the number of intakes and exhales over 10 sec intervals. These studies were carried out under institutionally approved animal protocol HSC-AWC 04-022. Analysis of serum glucose sample from mice at 2-3 h into SA was about 60% higher than control animals with CBT of 37° C. However, the serum blood glucose level drops to 40% below control animals at spontaneous arousal. […] A decline in blood glucose level can be reversed by increasing gluconeogenesis and reduced glucose need of major organs through β-oxidation of fatty acids. […] Liver RNA obtained from mice in normal state, SA, arousal by rewarming and spontaneous arousal was analyzed for procolipase expression by Northern blot analysis. […]

[5] = Heart rate at high concentrations; assay type: in vivo
[6] = assay type: in vivo, mouse
Method: They were immediately put into individual 500 ml pre-cooled beakers placed in a chamber at 4° C. […] CBT of the mice was monitored by a digital thermometer (Fisher Scientific, USA, catalog 15-077-8) via a micro stainless steel probe (1 mm) placed 1 cm into the rectal opening of the mouse. Temperature readings were taken at 15-20 sec after insertion of the probe. Once the CBT dropped to 15±1.0° C., mice were then transferred to a regular mouse cage with bedding and kept in an environment chamber at a temperature set at 14±0.5° C. or 15±0.5° C. Mice in SA were visually monitored for arousal. Once arousal was apparent, the animals were returned to standard housing. After 12 h of SA, mice were returned to 20-22° C. AET housing with food and water given ad libitum. For 4 consecutive days after SA, food intakes were determined by weight differential of fresh chow and water after every 24 h at ZT2. Body weight was measured at every ZT2. Respiration rate was determined by placing a mouse inside an open-end 50 ml tube and the number of breaths were determined by counting the number of intakes and exhales over 10 sec intervals.
AET for about 60 min. Markedly different behavioral responses to 4° C. AET were observed. […] In contrast, mice injected with 5′-AMP maintained a relaxed posture and no apparent shivering. […] As CBT dropped below 31° C., the mice retained a considerable cognitive response to tactile stimuli indicating a state of torpor (T). However, when CBT dropped to 18-22° C., the mice lost much of their locomotor mobility but had the ability to reverse flip (RF) to right themselves when they were placed on their backs or sides. When CBT dropped below 17° C., this RF ability was lost and the animals entered a state of SA. When laid on their sides or backs, the mice appeared in a suspended animation state with out-stretched limbs and low respiration rates.
These observations raised questions concerning the relative contribution of 5′-AMP, AET and the CBT in mediating SA. To address these issues, the relationship between 5′-AMP and SA was investigated. […] AET for about 60 min.
AET to await spontaneous arousal.
To identify the driver of SA, the relationship between CBT of mice and the AET was investigated. Once in SA, mice were maintained either at 14±0.5° C. or 15±0.5° C. AET. […] Next, the arousal responses of mice kept at 14±0.5° C. or 15±0.5° C. AET were compared. The majority of mice maintained at 15±0.5° C. AET could spontaneously aroused from SA (FIG. 35b). […] When these mice were subsequently placed at a higher AET, they aroused spontaneously and could enter the S stage. A period of SA longer than 14 h was associated with a decline in the ability of the animal to enter the S stage after arousal by warming. […] The underlying cause(s) of death remains unclear.
Together, the foregoing studies indicate that CBT is a major driver of SA in direct response to a low AET. To obtain additional support for this conclusion, the effects of AET on the recovery rate from SA was investigated. Groups of mice (n=4) in SA with a CBT of about 15° C. were transferred into environments with increasing AET's. The time required for each animal's CBT to return to 37° C. was measured (FIG. 35c). A direct correlation between the increase in AET and the recovery rate from SA was seen. To determine whether there were any long-term negative effects from SA, food intake and body weight were measured for several days as an indirect assessment of health status. Mice (n=4) that exited SA spontaneously were used for these studies.

[7] = Blood glucose after 5′-AMP injection; assay type: in vivo, mouse; conditions: injections
[8] = Daily injection of 5′-AMP into morbid obese Ob/Ob mice: body weight and food intake; assay type: in vivo; conditions: Ob/Ob mouse, daily injection 5 then 2.5 umol/gbw, compared with saline
Source text: This was then decrease to 2.5 umol/gbw for the rest of the studies.

[9] = cited from earlier work
[10] = IP, above 0.25 mg/gbw, chamber at 4° C.
[11] = mouse, 4° C. environment for the cooling phase

## NC(=O)c1ncn([C@@H]2O[C@H](CO)[C@@H](O)[C@H]2O)c1N [AICAR, 5-aminoimidazole-4-carboxamide ribonucleoside]
[1]
  fatty acid oxidation: increase fatty acid oxidation

## Nc1ncnc2c1ncn2[C@@H]1O[C@@H]2COP(=O)(O)O[C@H]2[C@H]1O [c-AMP]
[2]
  mClps expression in the liver: did not induce mClps expression

## Nc1ncnc2c1ncn2[C@@H]1O[C@H](COP(=O)(O)O)[C@@H](O)[C@H]1O [5′-AMP, 5′-adenosine monophosphate]
[2]; RT-PCR
  mClps expression in peripheral tissues: detected in all peripheral tissues sampled except the brain
[2]
  mClps expression in the liver: induced mClps expression
[3]
  ATP level after a second injection: steep drop in ATP level
High dose, from about 37° C., during about the first hour, ambient room temperature 24° C.
  CBT after injection: about 27 °C
mouse, in vivo
  adverse effects on the torpid mice: No apparent adverse effects
Various dosages, wild type mice
  length of torpor: dependent on the dosage
[4]; 2-3 h into SA, control CBT 37° C.
  serum glucose higher than control animals: about 60%
[4]; at spontaneous arousal
  serum blood glucose below control animals: 40%
[4]; mice that had aroused spontaneously, Northern blot
  procolipase expression in liver: robust level of procolipase expression
[5]
  heart rate: slows the heart rate
[6]; 0.25 to 1.5 mg/gbw, maintained at 15±0.5° C. AET until spontaneous arousal
  length of SA as a function of 5′-AMP dose: considerable overlap in the arousal time
[6]; IP, 4° C. AET for about 60 min, CBT reduction to at least 15° C.
  effective dosage (ED50) that induced at least 50% of the mice to enter SA: 0.125 mg/gbw
[6]; [10]
  CBT reached: 15±1.0 °C
  thermo-regulatory responses: blocked all thermo-regulatory responses
[6]; IP, above 0.25 mg/gbw, chamber at 4° C., CBT to 15±1.0° C.
  time for CBT drop: 60 ± 10 min
[6]; mice in SA
  CBT above ambient environmental temperature (AET) during SA: 1-2 °C
[6]; mouse
  dose that can induce deep torpor: 5-7.5 mg/g body weight
[6]; [11]
  ED50 for inducing torpor: approximately 0.15 mg/gram body weight
  ED100 for inducing torpor: approximately 0.25 mg/g body weight
[6]; mouse, in vivo
  body weight after SA: no significant difference in body weight
  food intake after SA: moderately lower food intake
[6]; normal about 120 breaths per min, CBT below 17° C.
  respiration rate in SA: reduced by at least two-thirds
[7]
  blood glucose levels: reduce the blood glucose levels
[8]
  body weight: weight loss
  satiety / food intake: lower satiety

## Nc1ncnc2c1ncn2[C@@H]1O[C@H](COP(=O)(O)OP(=O)(O)OP(=O)(O)O)[C@@H](O)[C@H]1O [ATP]
[2]
  mClps expression in the liver: did not induce mClps expression

## CCNC(=O)[C@H]1O[C@@H](n2cnc3c(N)ncnc32)[C@H](O)[C@@H]1O [NECA]
[2]
  mClps expression in the liver: did not induce colipase expression

## Nc1ncnc2c1ncn2[C@@H]1O[C@H](COP(=O)(O)OP(=O)(O)O)[C@@H](O)[C@H]1O [ADP, adenosine 5′-diphosphate]
[2]
  mClps expression in the liver: did not induce mClps expression

## Nc1ncnc2c1ncn2[C@@H]1O[C@H](CO)[C@@H](O)[C@H]1O [adenosine]
[2]
  mClps expression in the liver: induced mClps expression
[9]
  water solubility: very low
